Test results from publication PMC12136037, “Type II kinase inhibitors that target Parkinson’s disease–associated LRRK2” (Science Advances, 2025).

How the values were obtained:
Assay in all cases: DSF 100 kinase selectivity screen;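 note: compound tested at 20 µM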
Type in all cases: binding
[1] = target: T1, ~100 representative kinases (Homo sapiens, UniProt P49759); details: Protein CLK1; average of three replicates
T1 construct: Recombinant protein kinase domains with a concentration of 2 μM
Method in brief: (§1)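 Each kinase domain, at 2 μM, is mixed with 20 μM test compound and SYPRO Orange in Hepes (20 mM, pH 7.5) with 500 mM NaCl. Temperature is then raised at 3°C/min and fluorescence-monitored unfolding yields the melting temperature change, ΔTm in degrees Celsius.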

[2] = target: T2, ~100 representative kinases (Homo sapiens, UniProt P54762); details: Protein EPHB1; average of three replicates
T2 construct: Recombinant protein kinase domains with a concentration of 2 μM
T2 sequence (P54762 18-984): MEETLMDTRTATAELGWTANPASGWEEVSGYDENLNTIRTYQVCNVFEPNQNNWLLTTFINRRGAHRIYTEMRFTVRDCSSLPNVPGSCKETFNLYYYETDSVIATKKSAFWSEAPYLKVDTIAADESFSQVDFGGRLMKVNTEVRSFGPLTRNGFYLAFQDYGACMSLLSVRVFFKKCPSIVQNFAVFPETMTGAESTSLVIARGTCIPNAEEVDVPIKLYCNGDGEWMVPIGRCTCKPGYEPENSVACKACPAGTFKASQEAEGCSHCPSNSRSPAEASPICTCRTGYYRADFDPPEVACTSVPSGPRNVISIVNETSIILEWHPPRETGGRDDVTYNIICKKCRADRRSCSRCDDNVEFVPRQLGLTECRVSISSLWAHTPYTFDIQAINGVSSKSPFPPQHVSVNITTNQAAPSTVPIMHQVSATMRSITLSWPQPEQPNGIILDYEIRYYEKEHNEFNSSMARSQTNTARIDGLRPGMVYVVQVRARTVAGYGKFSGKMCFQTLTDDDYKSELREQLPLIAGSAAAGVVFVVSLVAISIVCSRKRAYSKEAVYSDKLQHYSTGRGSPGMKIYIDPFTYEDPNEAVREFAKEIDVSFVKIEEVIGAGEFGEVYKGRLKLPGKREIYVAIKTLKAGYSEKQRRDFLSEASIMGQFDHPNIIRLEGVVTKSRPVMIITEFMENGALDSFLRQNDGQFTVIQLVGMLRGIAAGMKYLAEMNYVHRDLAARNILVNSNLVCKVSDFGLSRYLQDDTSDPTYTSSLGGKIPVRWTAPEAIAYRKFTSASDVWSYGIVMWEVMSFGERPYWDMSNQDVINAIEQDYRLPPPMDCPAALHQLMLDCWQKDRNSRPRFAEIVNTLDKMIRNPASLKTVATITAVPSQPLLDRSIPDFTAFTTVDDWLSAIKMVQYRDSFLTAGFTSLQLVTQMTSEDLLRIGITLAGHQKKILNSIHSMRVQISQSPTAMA
Method in brief: as §1

[3] = target: T3, ~100 representative kinases (Homo sapiens, UniProt P45983); details: protein MAPK8; average of three replicates
T3 construct: Recombinant protein kinase domains with a concentration of 2 μM
T3 sequence (P45983 whole entry, the tested form may be a part): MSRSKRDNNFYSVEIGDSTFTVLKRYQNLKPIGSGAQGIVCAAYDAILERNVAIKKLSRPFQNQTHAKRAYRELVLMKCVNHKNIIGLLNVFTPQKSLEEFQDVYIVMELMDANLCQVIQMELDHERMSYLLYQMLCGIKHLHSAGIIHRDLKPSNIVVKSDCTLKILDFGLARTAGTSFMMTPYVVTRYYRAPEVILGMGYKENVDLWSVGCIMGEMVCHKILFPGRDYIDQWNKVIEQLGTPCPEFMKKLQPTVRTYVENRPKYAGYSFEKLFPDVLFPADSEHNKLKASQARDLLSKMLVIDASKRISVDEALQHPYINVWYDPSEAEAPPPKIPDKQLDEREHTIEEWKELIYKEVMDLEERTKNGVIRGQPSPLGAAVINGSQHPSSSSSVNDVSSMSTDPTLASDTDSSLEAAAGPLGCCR
Method in brief: as §1

[4] = target: T4, ~100 representative kinases (Homo sapiens, UniProt O94804); details: Protein STK10; DSF; average of three replicates
T4 construct: Recombinant protein kinase domains with a concentration of 2 μM
T4 sequence (O94804 whole entry, the tested form may be a part): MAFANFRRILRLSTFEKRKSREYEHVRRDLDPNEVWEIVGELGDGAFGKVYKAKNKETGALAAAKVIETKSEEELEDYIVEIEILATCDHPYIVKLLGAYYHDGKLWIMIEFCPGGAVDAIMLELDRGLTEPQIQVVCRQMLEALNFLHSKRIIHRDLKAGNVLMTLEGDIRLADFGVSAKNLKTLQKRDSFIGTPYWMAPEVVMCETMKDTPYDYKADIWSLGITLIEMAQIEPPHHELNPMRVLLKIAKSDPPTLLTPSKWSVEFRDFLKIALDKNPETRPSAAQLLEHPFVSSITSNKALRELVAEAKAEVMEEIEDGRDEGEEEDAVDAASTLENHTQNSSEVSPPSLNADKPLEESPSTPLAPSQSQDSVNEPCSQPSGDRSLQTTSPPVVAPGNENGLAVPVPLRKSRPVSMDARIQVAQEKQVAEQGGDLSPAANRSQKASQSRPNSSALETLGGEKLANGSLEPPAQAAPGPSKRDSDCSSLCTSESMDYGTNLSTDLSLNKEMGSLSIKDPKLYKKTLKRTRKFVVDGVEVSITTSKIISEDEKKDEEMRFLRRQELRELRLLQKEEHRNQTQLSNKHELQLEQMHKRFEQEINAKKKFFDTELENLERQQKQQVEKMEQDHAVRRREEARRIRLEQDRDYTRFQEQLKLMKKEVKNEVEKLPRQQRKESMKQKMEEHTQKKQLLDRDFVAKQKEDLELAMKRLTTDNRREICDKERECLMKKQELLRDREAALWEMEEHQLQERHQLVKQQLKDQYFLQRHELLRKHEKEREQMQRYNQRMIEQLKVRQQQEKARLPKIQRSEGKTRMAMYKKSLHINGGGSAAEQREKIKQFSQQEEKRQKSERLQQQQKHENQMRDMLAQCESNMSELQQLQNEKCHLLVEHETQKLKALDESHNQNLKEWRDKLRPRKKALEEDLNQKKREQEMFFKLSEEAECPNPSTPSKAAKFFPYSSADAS
Method in brief: as §1

[5] = target: T5, ~100 representative kinases (Homo sapiens, UniProt O96017); details: Protein CHEK2; average of three replicates
T5 construct: Recombinant protein kinase domains with a concentration of 2 μM
T5 sequence (O96017 whole entry, the tested form may be a part): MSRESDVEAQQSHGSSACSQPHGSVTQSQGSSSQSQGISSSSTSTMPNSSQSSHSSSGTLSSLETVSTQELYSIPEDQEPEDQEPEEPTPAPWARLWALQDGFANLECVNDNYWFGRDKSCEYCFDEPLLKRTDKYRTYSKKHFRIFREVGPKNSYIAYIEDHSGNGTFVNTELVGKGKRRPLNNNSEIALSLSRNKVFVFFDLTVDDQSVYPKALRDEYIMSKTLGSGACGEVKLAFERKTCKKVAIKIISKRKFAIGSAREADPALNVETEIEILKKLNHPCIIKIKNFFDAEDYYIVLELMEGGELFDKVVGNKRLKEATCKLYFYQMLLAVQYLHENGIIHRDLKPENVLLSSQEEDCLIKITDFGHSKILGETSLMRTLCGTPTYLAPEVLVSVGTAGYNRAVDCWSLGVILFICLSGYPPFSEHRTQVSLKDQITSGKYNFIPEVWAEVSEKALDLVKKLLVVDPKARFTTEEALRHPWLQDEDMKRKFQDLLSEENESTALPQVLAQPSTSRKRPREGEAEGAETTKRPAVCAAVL
Method in brief: as §1

[6] = target: T6, ~100 representative kinases (Homo sapiens, UniProt Q96PY6); details: protein NEK1; average of three replicates
T6 construct: Recombinant protein kinase domains with a concentration of 2 μM
T6 sequence (Q96PY6 1-1258): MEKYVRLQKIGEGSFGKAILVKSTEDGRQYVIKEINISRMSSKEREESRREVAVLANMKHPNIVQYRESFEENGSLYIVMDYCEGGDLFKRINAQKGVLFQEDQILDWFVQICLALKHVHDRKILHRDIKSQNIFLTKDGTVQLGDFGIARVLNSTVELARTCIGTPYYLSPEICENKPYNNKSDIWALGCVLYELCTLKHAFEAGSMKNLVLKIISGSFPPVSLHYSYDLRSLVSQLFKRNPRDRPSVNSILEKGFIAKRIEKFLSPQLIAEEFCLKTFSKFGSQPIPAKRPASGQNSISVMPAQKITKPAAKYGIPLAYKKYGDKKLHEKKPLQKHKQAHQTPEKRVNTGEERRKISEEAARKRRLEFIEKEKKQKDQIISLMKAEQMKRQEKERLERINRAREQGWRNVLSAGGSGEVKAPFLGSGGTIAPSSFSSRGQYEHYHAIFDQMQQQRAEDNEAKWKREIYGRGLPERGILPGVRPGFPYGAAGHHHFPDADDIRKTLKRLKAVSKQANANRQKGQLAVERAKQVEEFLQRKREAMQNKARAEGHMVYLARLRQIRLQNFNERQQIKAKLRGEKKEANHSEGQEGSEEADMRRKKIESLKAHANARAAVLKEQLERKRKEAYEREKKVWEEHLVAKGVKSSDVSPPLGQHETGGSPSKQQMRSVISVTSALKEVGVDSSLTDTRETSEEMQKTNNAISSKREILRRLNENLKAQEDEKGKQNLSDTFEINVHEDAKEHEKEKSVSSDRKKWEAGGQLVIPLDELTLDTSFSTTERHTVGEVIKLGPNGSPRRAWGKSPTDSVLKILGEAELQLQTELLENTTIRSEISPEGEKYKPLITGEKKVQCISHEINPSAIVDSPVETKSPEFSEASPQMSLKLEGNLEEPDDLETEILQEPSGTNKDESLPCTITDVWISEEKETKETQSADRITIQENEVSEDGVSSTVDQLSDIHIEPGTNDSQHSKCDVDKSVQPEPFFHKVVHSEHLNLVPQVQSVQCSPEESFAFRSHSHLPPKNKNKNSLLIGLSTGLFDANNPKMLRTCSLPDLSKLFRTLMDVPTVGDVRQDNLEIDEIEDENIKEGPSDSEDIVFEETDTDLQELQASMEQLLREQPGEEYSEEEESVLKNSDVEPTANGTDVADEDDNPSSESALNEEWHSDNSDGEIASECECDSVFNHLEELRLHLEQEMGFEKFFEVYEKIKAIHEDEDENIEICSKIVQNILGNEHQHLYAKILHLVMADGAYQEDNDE
Method in brief: as §1

T1 sequence (P49759 whole entry, the tested form may be a part): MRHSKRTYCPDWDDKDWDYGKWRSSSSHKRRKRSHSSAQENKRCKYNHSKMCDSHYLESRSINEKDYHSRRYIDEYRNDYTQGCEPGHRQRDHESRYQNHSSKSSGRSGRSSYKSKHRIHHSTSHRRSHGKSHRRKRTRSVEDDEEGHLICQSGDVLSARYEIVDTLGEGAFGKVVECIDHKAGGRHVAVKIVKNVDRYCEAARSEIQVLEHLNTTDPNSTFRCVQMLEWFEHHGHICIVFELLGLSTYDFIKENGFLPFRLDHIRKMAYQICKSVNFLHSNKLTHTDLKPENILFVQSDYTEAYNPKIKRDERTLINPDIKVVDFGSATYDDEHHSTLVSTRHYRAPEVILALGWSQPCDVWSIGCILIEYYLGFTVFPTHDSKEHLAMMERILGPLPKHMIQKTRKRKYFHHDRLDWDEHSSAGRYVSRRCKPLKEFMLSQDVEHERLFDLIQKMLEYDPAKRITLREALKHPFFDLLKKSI

SMILES	dTm [1]	dTm [2]	dTm [3]	dTm [4]	dTm [5]	dTm [6]
Cc1ccc(C(=O)Nc2ccc(CN3CCN(C)CC3)c(C(F)(F)F)c2)cc1C#Cc1c[nH]c2ncnc(N3CCOCC3)c12 [Compound 1]	8.76 K	4.85 K	2.18 K	14.26 K	15.46 K	-0.11 K
O=C(Nc1ccc(F)cc1)C1(C(=O)Nc2cccc(-c3c[nH]c4ncnc(N5CCOCC5)c34)c2)CC1 [Compound 2]	9.06 K	3.27 K	1.17 K	12.98 K	4.13 K	-0.21 K
O=C(Nc1cccc(-c2c[nH]c3ncnc(N4CCOCC4)c23)c1)c1cccn(-c2ccc(F)cc2)c1=O [Compound 4]	9.53 K	2.81 K	3.47 K	11.47 K	3.03 K	-0.47 K
Cc1cc(NC(=O)C2(C(=O)Nc3ccc(F)cc3)CC2)cc(-c2c[nH]c3ncnc(N4CCOCC4)c23)c1 [Compound 6]	4.67 K	1.49 K	2.19 K	11.03 K	1.23 K	-0.00237 K
O=C(Nc1cccc(-c2c[nH]c3ncnc(N4CCOCC4)c23)c1)C1(C(=O)Nc2cccc3c2CCC3)CC1 [Compound 11]	7.29 K	-11.24 K	2.36 K	10.54 K	1.65 K	-2.39 K
O=C(Nc1ccccc1)C1(C(=O)Nc2cccc(-c3c[nH]c4ncnc(N5CCOCC5)c34)c2)CC1 [Compound 12]	9.52 K	2.37 K	1.81 K	11.85 K	3.05 K	0.33 K
O=C(Nc1ccc(Cl)cc1)C1(C(=O)Nc2cccc(-c3c[nH]c4ncnc(N5CCOCC5)c34)c2)CC1 [Compound 13]	9.39 K	5.42 K	3.26 K	14.64 K	5.52 K	0.54 K
Cc1ccc(NC(=O)C2(C(=O)Nc3cccc(-c4c[nH]c5ncnc(N6CCOCC6)c45)c3)CC2)cc1 [Compound 14]	6.84 K	3.63 K	0.90 K	11.44 K	3.90 K	0.23 K
CCc1ccc(NC(=O)C2(C(=O)Nc3cccc(-c4c[nH]c5ncnc(N6CCOCC6)c45)c3)CC2)cc1 [Compound 15]	6.65 K	3.72 K	1.56 K	12.89 K	6.14 K	0.19 K
COc1ccc(NC(=O)C2(C(=O)Nc3cccc(-c4c[nH]c5ncnc(N6CCOCC6)c45)c3)CC2)cc1 [Compound 16]	7.75 K	0.79 K	0.26 K	7.29 K	2.18 K	0.34 K
O=C(Nc1cccc(-c2c[nH]c3ncnc(N4CCOCC4)c23)c1)C1(C(=O)Nc2ccc(F)c(F)c2)CC1 [Compound 17]	8.95 K	2.50 K	2.52 K	13.86 K	4.07 K	0.29 K
O=C(Nc1cccc(-c2c[nH]c3ncnc(N4CCOCC4)c23)c1)C1(C(=O)Nc2ccc(F)c(Cl)c2)CC1 [Compound 18]	9.40 K	3.41 K	3.23 K	15.34 K	5.34 K	-0.32 K
O=C(Nc1cccc(-c2c[nH]c3ncnc(N4CCOCC4)c23)c1)C1(C(=O)Nc2ccc(F)c(Br)c2)CC1 [Compound 19]	8.69 K	1.85 K	3.53 K	16.12 K	3.80 K	-0.89 K
Cc1cc(NC(=O)C2(C(=O)Nc3cccc(-c4c[nH]c5ncnc(N6CCOCC6)c45)c3)CC2)ccc1F [Compound 20]	11.22 K	4.46 K	3.09 K	16.12 K	5.31 K	-0.05 K
COc1cc(NC(=O)C2(C(=O)Nc3cccc(-c4c[nH]c5ncnc(N6CCOCC6)c45)c3)CC2)ccc1F [Compound 21]	10.73 K	1.66 K	1.81 K	12.16 K	4.32 K	-0.0539 K
CC(C)(C)c1cccc(NC(=O)C2(C(=O)Nc3cccc(-c4c[nH]c5ncnc(N6CCOCC6)c45)c3)CC2)c1 [Compound 22]	7.58 K	-3.38 K	3.75 K	15.18 K	3.64 K	-1.56 K
O=C(Nc1cccc(-c2c[nH]c3ncnc(N4CCOCC4)c23)c1)C1(C(=O)Nc2ccc(F)cc2F)CC1 [Compound 23]	7.21 K	2.11 K	1.59 K	9.26 K	3.32 K	-0.14 K
Cc1cc(F)ccc1NC(=O)C1(C(=O)Nc2cccc(-c3c[nH]c4ncnc(N5CCOCC5)c34)c2)CC1 [Compound 24]	5.49 K	1.63 K	2.35 K	8.23 K	2.66 K	-0.14 K
Cc1ccc(C(=O)Nc2ccc(CN3CCN(C)CC3)c(C(F)(F)F)c2)cc1C#Cc1cnc2[nH]ncc2c1 [GZD-824, reference compound]	7.80 K	14.98 K	4.08 K		5.84 K	1.45 K
Cc1ccc(C(=O)Nc2ccc(CN3CCN(C)CC3)c(C(F)(F)F)c2)cc1C#Cc1cnc2cccnn12 [Ponatinib, reference compound]						0.42 K
CN[C@@H]1C[C@H]2O[C@@](C)([C@@H]1OC)n1c3ccccc3c3c4c(c5c6ccccc6n2c5c31)C(=O)NC4 [Staurosporine]				22.21 K		
